Each structure is given as a SMILES string. pIC50: −log10 of the molar value.

A short description of data set [1]: Ex vivo serum stability. Format: in vitro ADME. As to conditions: human serum, 37° C., after 120 min of tracer synthesis. Here is the method:
The ex vivo serum stability of [^18F]KS1 and [^18F]KS2 were analyzed in human serum samples, following previously published methods (Sai et al., Peptide-based PET imaging of the tumor restricted IL13RA2 biomarker. Oncotarget 2017, 5; Sattiraju et al., IL13RA2 targeted alpha particle therapy against glioblastoma. Journal of Nuclear Medicine 2016, 57 (supplement 2), 634; Wang et al., Evaluation of F-18-labeled amino acid derivatives and [18F]FDG as PET probes in a brain tumor-bearing animal model. Nuclear Medicine and Biology 2005, 32 (4), 367-375). Briefly, radiotracer was added to the human serum sample, and incubated at 37° C. Radioactive serum mixture was injected into the QC-HPLC system at 5 min, 30 min, 1 h, 1.5 h, 2 h, 2.5 h, and 3 h post radiotracer synthesis. Radiolysis through defluorination and/or oxidation of the radiotracers (if any) can be seen as new radiochemical peaks at different retention times (Rt) than the original product peak (Jin et al., A promising F-18 labeled PET radiotracer (-)-[18F]VAT for assessing the VAChT in vivo. Journal of Nuclear Medicine 2015, 56 (supplement 3); Koglin et al., [F-18]BAY 85-8050: A novel tumor specific probe for PET imaging-Preclinical results. Journal of Nuclear Medicine 2010, 51 (supplement 2), 1535; […] et al., Imaging COX-2 expression in cancer using PET/SPECT radioligands: current status and future directions. […]

Data set [2] deals with SCC-61 and rSCC-61 cell lines. Kind of data set: MitoSOX fluorescence ROS assay, with or without SOD blocker. Format: cell-based, human. The method, then:
As a first-line tool to screen KS1 and KS2: SCC-61 has higher intracellular ROS than rSCC-61. MitoSOX is a mitochondrion-targeted dihydroethidium based derivative that primarily detects ROS (superoxide anion) produced within mitochondria. Mitosox assays without any ligands were used as controls. The two cell lines were treated with KS1, KS2 and ascorbate (10.0 μM) and incubated for an hour. MitoSOX (1.0 μM) in phenol red-free DMEM/F12 media was added and incubated for an additional 10 min. The cells were then washed with PBS and imaged in the same media.
In addition to testing KS1 with the MitoSOX assay, we compared our results with no ligand controls and ascorbate as a reference standard. The two cell lines were treated with KS1 and ascorbate (10.0 μM) and incubated for an hour. MitoSOX (1.0 μM) in phenol red-free DMEM/F12 media was added and incubated for an additional 10 min. The cells were then washed with PBS and imaged in the same media. Ligand specificity is commonly determined by pretreating the cells with high concentrations of blockers. Superoxide dismutase (SOD), an enzyme that selectively suppresses accumulation of ROS-superoxide peroxide anions, was added as blocker (1.0 mM) 60 min before the treatment of KS1 (Bielski et al., Chemistry of ascorbic acid radicals. in Ascorbic Acid: Chemistry, Metabolism, and Uses. Chapter. 1982; 4:81-100). Fluorescence was subsequently measured and its intensity was quantified in f.u (fluorescence units).
Ligand specificity is commonly determined by pretreating the cells with high concentrations of blockers. We used superoxide dismutase (SOD), an enzyme that selectively suppresses accumulation of ROS-superoxide peroxide anions (Bielski et al., Chemistry of ascorbic acid radicals. in Ascorbic Acid: Chemistry, Metabolism, and Uses. Chapter 1982, 4, 81-100). The same MitoSOX assay with KS1 and KS2 (10 μM) was performed by pretreating the SCC-61 cells with SOD (1.0 mM) for 60 min.

Data set [3] deals with PC3 cell line. Kind of data set: MTT cytotoxicity IC50 assay, PC3. It counts as cell-based, human. The method, then:
(§1) The cells were seeded at density 5×10^3 cells/well. After 24 h pre-incubation period, cells were treated with 0.01 mM to 2.0 mM of freshly prepared KS1 and KS2 along with ascorbate (n=3) for 48 h. 0.2% of DMSO served as vehicle control. After 48 h, the solutions were removed from all plates and MTT assays performed following the published protocols. IC50 values are presented as mean±SD from at least three independent experiments.
(§2) There is growing evidence for a therapeutic role of ascorbate against several cancers (Creagan et al., Failure of High-Dose Vitamin C (Ascorbic Acid) Therapy to Benefit Patients with Advanced Cancer. New England Journal of Medicine 1979, 301 (13), 687-690; Chen et al., Pharmacologic ascorbic acid concentrations selectively kill cancer cells: action as a pro-drug to deliver hydrogen peroxide to tissues. Proceedings of the National Academy of Sciences of the United States of America 2005, 102 (38), 13604-13609; Prasad et al., High Doses of Multiple Antioxidant Vitamins: Essential Ingredients in Improving the Efficacy of Standard Cancer Therapy. Journal of the American College of Nutrition 1999, 18 (1), 13-25). Pharmacologic doses of ascorbate (oral and/or intravenous) could increase the effectiveness of cancer chemotherapy in many solid cancer therapies (López-Lizaro, Dual role of hydrogen peroxide in cancer: Possible relevance to cancer chemoprevention and therapy. Cancer Letters 2007, 252 (1), 1-8; Li et al., New Developments and Novel Therapeutic Perspectives for Vitamin C. The Journal of Nutrition 2007, 137 (10), 2171-2184; Klimant et al., Intravenous vitamin C in the supportive care of cancer patients: a review and rational approach. Current Oncology 2018, 25 (2), 139-148. The primary objective of this experiment was to determine the cytotoxic effects of KS1 at pharmacological concentrations. Cancer cell lines were selected based on their high ROS implications. […] These cell lines have been studied extensively with ascorbic acid treatments (Schoenfeld et al., O(2)(·−) and H(2)O(2)-Mediated Disruption of Fe Metabolism Causes the Differential Susceptibility of NSCLC and GBM Cancer Cells to Pharmacological Ascorbate. Cancer Cell 2017, 31 (4), 487-500.e8; Chen et al., Modulators of Redox Metabolism in Head and Neck Cancer. Antioxidants & Redox Signaling 2017, 29 (16), 1660-1690; Khandrika et al., Oxidative stress in prostate cancer. Cancer Lett 2009, 282 (2), 125-136.
Background: Tetrazolium dyes change colour on reduction, which living cells bring about.

The subject of data set [4] is SCC-61 cell line (HNSCC). Kind of data set: MTT cytotoxicity IC50 assay, SCC-61. It counts as cell-based, human. As to conditions: SCC-61, MTT. Here is the method: as §1, §2
The subject of data set [5] is SCC-61 and PC3 cell lines. Briefly: DCFDA intracellular ROS detection assay. It counts as cell-based, human. The following applies: 2 mM, 7 h, compared to 100 μM. From the text: For this, we used dichlorofluorescin diacetate (DCFDA) intracellular ROS detection assay kit and followed manufacture recommended protocol (ZHELEV et al., Docosahexaenoic Acid Sensitizes Leukemia Lymphocytes to Barasertib and Everolimus by ROS-dependent Mechanism Without Affecting the Level of ROS and Viability of Normal Lymphocytes. Anticancer Research 2016, 36 (4), 1673-1682). We studied two patient-derived tumor cell lines: SCC-61, […], and PC3, prostate cancer cell line. The maximum allowed mass for a typical clinical PET radiotracer is <100 μM (Schwarz et al., Radiochemistry and radiopharmacology. LIC-Nuclear Medicine and PET/CT: Technology and Techniques 2016, 11, 77), so we chose 10-100 μM as our concentration range for tracer-level assays. The lowest reported pharmacologic dose for ascorbate is 2.0 mM (Levine et al., Vitamin C: a concentration-function approach yields pharmacology and therapeutic discoveries. Adv Nutr 2011, 2 (2), 78-88), so we chose this dose for our pharmacological assays. We chose the ligand incubation times based on the maximum tracer uptake time (˜2 h) for a typical [^18F]-based PET radiotracer injection (Schlyer, PET tracers and radiochemistry. ANNALS-ACADEMY OF MEDICINE SINGAPORE 2004, 33 (2), 146-154).
Pharmacologic doses of ascorbate generates ROS, including H2O2 and trace amounts of labile iron extracellularly and/or intracellularly (Nauman et al., Systematic Review of Intravenous Ascorbate in Cancer Clinical Trials. Antioxidants (Basel) 2018, 7 (7), 89). We performed the same DCFDA assay with KS1 and ascorbate at pharmacological doses of 2 mM for 7 h in both SCC-61 and PC3 cell lines. ROS production was analyzed and reported (FIG. 11) using the similar measurements as above. Ligand specificity is commonly determined by pretreating the cells with high concentrations of blockers. We used superoxide dismutase (SOD), an enzyme that selectively suppresses accumulation of superoxide peroxide anions (Bielski et al., Chemistry of ascorbic acid radicals. in Ascorbic Acid: Chemistry, Metabolism, and Uses. Chapter 1982, 4, 81-100).

In data set [6] the test system is SCC-61 cells. The following applies: cited from earlier work.

For the compound `O=C1O/C(=C/Cc2ccc(OCC[18F])cc2)C(O)=C1O` [[^18F]KS2], the intact in serum in data set [1] is given as about 80%.

For `O=C1O/C(=C/Cc2ccc(OCCF)cc2)C(O)=C1O` [KS2], in data set [2] (Example 4, SCC-61 vs rSCC-61, MitoSOX fluorescence), the “higher selectivity between the two cell lines compared to ascorbate selectivity” value is recorded as about 10 fold. Further, in data set [2] (SCC-61 cells, SOD (1.0 mM) for 60 min), the “decrease of fluorescent uptake by SOD pretreatment” value is about 30%. Moreover, the pIC50 (commonly the negative decadic logarithm of the IC50, by convention in mol/L) in data set [3] (Example 7, 48 h) was 3.60; in data set [4] (Example 7, 48 h), 3.78.

Turning to `O=C1O[C@H]([C@@H](O)CO)C(O)=C1O` [ascorbate, ascorbic acid, reference compound], the “fluorescence intensity (ROS generation) at pharmacological dose” value in data set [5] is recorded as “also increased, but not as with KS1”. Besides, the “MitoSOX fluorescence in SCC-61 compared to rSCC-61 cells” value in data set [2] (10.0 μM, 1 h incubation) is reported as “higher fluorescence”. Also, the pIC50 in data set [3] (Homo sapiens, PC-3, Example 7, 48 h) was 2.95; in data set [3] (Homo sapiens, PC-3, Example 13) it was 2.85; in data set [4] (Homo sapiens, Example 7, 48 h), 3.09; in data set [4] (Homo sapiens, Example 13), 2.86.

With `C#Cc1cccc(Nc2ncnc3cc(OCCOC)c(OCCOC)cc23)c1` [erlotinib], the pIC50 in data set [6] is under 4.30.
